Test results as given in ChEMBL document CHEMBL3832761, “MMV Pathogen Box Bioactivity Data” (2017).
Values after ≈ are worked out from the molar mass of the structure shown.

Key:
Type in all cases: functional
[1] = test system: Mycobacterium tuberculosis; assay: AntiMycobacterium tuberculosis activity Replicating form: Average MIC90 (uM)
[2] = test system: Mycobacterium tuberculosis; assay: AntiMycobacterium tuberculosis activity 2-week Alamar Blue 7H9/cholesterol/BSA/Tx MIC (uM); conditions: 336 h
[3] = test system: Mycobacterium tuberculosis; assay: AntiMycobacterium tuberculosis activity Non-Replicating form: Average MIC90 (uM)
[4] = test system: Mycobacterium tuberculosis; assay: (§1) AntiMycobacterium tuberculosis activity day 10 in 7H9/2.5mM butyrate/pH6/0.1mM nitrite MIC90 (uM); conditions: 240 h
[5] = test system: Mycobacterium tuberculosis; assay: AntiMycobacterium tuberculosis activity 2-week 7H9/DPPC/cholesterol/BSA/Tx MIC (uM); conditions: 336 h
[6] = test system: Mycobacterium tuberculosis; assay: AntiMycobacterium tuberculosis activity 1-week 7H9/glucose/BSA/Tx MIC (uM); conditions: 168 h
[7] = test system: Mycobacterium tuberculosis; assay: AntiMycobacterium tuberculosis activity 1-week 7H9/ADC/Tw MIC (uM); conditions: 168 h
HepG2 = assay: HepG2 CC50 (uM) Cytotoxicity; conditions: Homo sapiens
[8] = test system: Mycobacterium tuberculosis; assay: AntiMycobacterium tuberculosis activity 1-week 7H9/DPPC/cholesterol/BSA/Tx MIC (uM); conditions: 168 h
[9] = test system: Mycobacterium tuberculosis; assay: AntiMycobacterium tuberculosis activity 2-week 7H9/ADC/Tw MIC (uM); conditions: 336 h
[10] = test system: Mycobacterium tuberculosis; assay: AntiMycobacterium tuberculosis activity day 21 in 7H9/2.5mM butyrate/pH6/0.1mM nitrite MIC90 (uM); conditions: 504 h
[11] = test system: Mycobacterium tuberculosis; assay: AntiMycobacterium tuberculosis activity 2-week Alamar Blue 7H9/ADC/Tw MIC (uM); conditions: 336 h
[12] = test system: Mycobacterium tuberculosis; assay: AntiMycobacterium tuberculosis activity day 21 MIC99 in 7H9/2.5mM butyrate/pH6/0.1mM nitrite MIC99 (uM); conditions: 504 h
[13] = test system: Mycobacterium tuberculosis; assay: AntiMycobacterium tuberculosis activity 1-week GAST/Fe MIC (uM); conditions: 168 h
[14] = test system: Mycobacterium tuberculosis; assay: AntiMycobacterium tuberculosis activity 2-week GAST/Fe MIC (uM); conditions: 336 h
[15] = test system: Mycobacterium tuberculosis; assay: as §1; conditions: 240 h; remark: listed apart in the source
[16] = test system: Mycobacterium tuberculosis; assay: AntiMycobacterium tuberculosis activity 2-week 7H9/glucose/BSA/Tx MIC (uM); conditions: 336 h
[17] = test system: Mycobacterium tuberculosis; assay: AntiMycobacterium tuberculosis activity 1-week 7H9/cholesterol/BSA/Tx MIC (uM); conditions: 168 h

SMILES | MIC90 [1] [µM] | MIC [2] [µM] | MIC90 [3] [µM] | MIC90 [4] [µM] | MIC [5] [µM] | MIC [6] [µM] | MIC [7] [µM] | CC50 (HepG2) [µM] | MIC [8] [µM] | MIC [9] [µM] | MIC90 [10] [µM] | MIC [11] [µM] | MIC [12] [µM] | MIC [13] [µM] | MIC [14] [µM] | MIC90 [15] [µM] | MIC [16] [µM] | MIC [17] [µM]
COc1cccc(OC)c1C(=O)Nc1ccc(Cl)c(-c2nc3ccccc3s2)c1 | 26.1 (≈ 11.1 µg/mL) | 19 (≈ 8.07 µg/mL) | 55.1 (≈ 23.4 µg/mL) | > 50 | 12.5 (≈ 5.31 µg/mL) | 25 (≈ 10.6 µg/mL) | 37 (≈ 15.7 µg/mL) | > 100 | 12.5 (≈ 5.31 µg/mL) | 37 (≈ 15.7 µg/mL) | > 50 | 37 (≈ 15.7 µg/mL) | > 50 | 6.25 (≈ 2.66 µg/mL) | 9.4 (≈ 3.99 µg/mL) | > 50 | 25 (≈ 10.6 µg/mL) | 12.5 (≈ 5.31 µg/mL)
O=C(Nc1nnc(-c2ccc(Cl)cc2)o1)c1cccc(C(F)(F)F)c1 | 27.2 (≈ 10 µg/mL) | 12.5 (≈ 4.6 µg/mL) | 2.71 (≈ 0.997 µg/mL) | > 50 | 19 (≈ 6.99 µg/mL) | 3.13 (≈ 1.15 µg/mL) | 25 (≈ 9.19 µg/mL) | 9 | 4.7 (≈ 1.73 µg/mL) | 25 (≈ 9.19 µg/mL) | 12.5 (≈ 4.6 µg/mL) | 25 (≈ 9.19 µg/mL) | 50 (≈ 18.4 µg/mL) | 0.05 (≈ 0.0184 µg/mL) | 0.07 (≈ 0.0257 µg/mL) | 12.5 (≈ 4.6 µg/mL) | 6.25 (≈ 2.3 µg/mL) | 19 (≈ 6.99 µg/mL)
CCCn1nnc(NC(=O)COc2ccc(C3CCCCC3)cc2)n1 | 40.1 (≈ 13.8 µg/mL) | 25 (≈ 8.59 µg/mL) | 98.5 (≈ 33.8 µg/mL) | 50 (≈ 17.2 µg/mL) | 37 (≈ 12.7 µg/mL) | 19 (≈ 6.53 µg/mL) | 19 (≈ 6.53 µg/mL) | > 100 | 19 (≈ 6.53 µg/mL) | 37 (≈ 12.7 µg/mL) | 50 (≈ 17.2 µg/mL) | 37 (≈ 12.7 µg/mL) | 50 (≈ 17.2 µg/mL) | 6.25 (≈ 2.15 µg/mL) | 12.5 (≈ 4.29 µg/mL) | 25 (≈ 8.59 µg/mL) | 37 (≈ 12.7 µg/mL) | 6.25 (≈ 2.15 µg/mL)
O=C1O[C@@H](COc2ccon2)CN1c1cc(F)c(C2=CCN(Cc3ccccc3)CC2)c(F)c1 | 3.51 (≈ 1.64 µg/mL) | 0.6 (≈ 0.28 µg/mL) | 2.88 (≈ 1.35 µg/mL) | 25 (≈ 11.7 µg/mL) | 1.56 (≈ 0.729 µg/mL) | 0.78 (≈ 0.365 µg/mL) | 0.39 (≈ 0.182 µg/mL) | 30.4 | 1.56 (≈ 0.729 µg/mL) | 0.6 (≈ 0.28 µg/mL) | 6.25 (≈ 2.92 µg/mL) | 0.39 (≈ 0.182 µg/mL) | 25 (≈ 11.7 µg/mL) | 0.78 (≈ 0.365 µg/mL) | 1.56 (≈ 0.729 µg/mL) | 6.25 (≈ 2.92 µg/mL) | 0.78 (≈ 0.365 µg/mL) | 1.2 (≈ 0.561 µg/mL)
FC(F)(F)c1nnc2ccc(Cl)nn12 | 6.37 (≈ 1.42 µg/mL) | 6.25 (≈ 1.39 µg/mL) | 7.75 (≈ 1.72 µg/mL) | > 50 | 6.25 (≈ 1.39 µg/mL) | 3.13 (≈ 0.697 µg/mL) | 3.13 (≈ 0.697 µg/mL) | > 100 | 4.7 (≈ 1.05 µg/mL) | 6.25 (≈ 1.39 µg/mL) | 50 (≈ 11.1 µg/mL) | 4.7 (≈ 1.05 µg/mL) | > 50 | 0.6 (≈ 0.134 µg/mL) | 1.2 (≈ 0.267 µg/mL) | 3.12 (≈ 0.694 µg/mL) | 4.7 (≈ 1.05 µg/mL) | 4.7 (≈ 1.05 µg/mL)
Cc1cccc(-c2nc(Nc3ccncn3)c3sccc3n2)n1 | 2.5 (≈ 0.801 µg/mL) | 6.25 (≈ 2 µg/mL) | 0.09 (≈ 0.0288 µg/mL) | 6.25 (≈ 2 µg/mL) | > 50 | ≥ 50 | 4.7 (≈ 1.51 µg/mL) | 14.3 | 37 (≈ 11.9 µg/mL) | 9.4 (≈ 3.01 µg/mL) | 6.25 (≈ 2 µg/mL) | 9.4 (≈ 3.01 µg/mL) | 6.25 (≈ 2 µg/mL) | 6.25 (≈ 2 µg/mL) | 12.5 (≈ 4 µg/mL) | 3.12 (≈ 1 µg/mL) | > 50 | 37 (≈ 11.9 µg/mL)
NCC(c1cccs1)S(=O)(=O)c1ccccc1 (configuration not stated) | 20.7 (≈ 5.52 µg/mL) | 50 (≈ 13.4 µg/mL) | 19.6 (≈ 5.24 µg/mL) | > 50 | 50 (≈ 13.4 µg/mL) | 25 (≈ 6.68 µg/mL) | 19 (≈ 5.08 µg/mL) | 35.4 | 50 (≈ 13.4 µg/mL) | 25 (≈ 6.68 µg/mL) | 25 (≈ 6.68 µg/mL) | 25 (≈ 6.68 µg/mL) | > 50 | 1.56 (≈ 0.417 µg/mL) | 2.3 (≈ 0.615 µg/mL) | 25 (≈ 6.68 µg/mL) | 25 (≈ 6.68 µg/mL) | 50 (≈ 13.4 µg/mL)
O=C(Nc1cccnc1)c1c(O)c2cccc3c2n(c1=O)CC3 | 8.35 (≈ 2.57 µg/mL) | 12.5 (≈ 3.84 µg/mL) | 7.75 (≈ 2.38 µg/mL) | > 50 | 12.5 (≈ 3.84 µg/mL) | 6.25 (≈ 1.92 µg/mL) | 25 (≈ 7.68 µg/mL) | > 100 | 12.5 (≈ 3.84 µg/mL) | 25 (≈ 7.68 µg/mL) | 12.5 (≈ 3.84 µg/mL) | 25 (≈ 7.68 µg/mL) | > 50 | 3.13 (≈ 0.962 µg/mL) | 3.13 (≈ 0.962 µg/mL) | 6.25 (≈ 1.92 µg/mL) | 9.4 (≈ 2.89 µg/mL) | 12.5 (≈ 3.84 µg/mL)
Cc1cc(NCCc2ccccc2)nc(NC(=N)Nc2ccc(Cl)cc2)n1 | 1.15 (≈ 0.438 µg/mL) | 0.78 (≈ 0.297 µg/mL) | 2.77 (≈ 1.06 µg/mL) | 6.25 (≈ 2.38 µg/mL) | 0.78 (≈ 0.297 µg/mL) | 1.2 (≈ 0.457 µg/mL) | 1.2 (≈ 0.457 µg/mL) | 6.5 | 0.6 (≈ 0.229 µg/mL) | 1.56 (≈ 0.594 µg/mL) | 3.12 (≈ 1.19 µg/mL) | 2.3 (≈ 0.876 µg/mL) | 3.12 (≈ 1.19 µg/mL) | 0.78 (≈ 0.297 µg/mL) | 0.78 (≈ 0.297 µg/mL) | 3.12 (≈ 1.19 µg/mL) | 1.2 (≈ 0.457 µg/mL) | 0.6 (≈ 0.229 µg/mL)
